Experimental data: patent US20210070748A1, “INHIBITORS OF BRUTONS TYROSINE KINASE” (Pharmacyclics LLC, priority 2015, published 2021)

How the values were obtained:
Assay type in all cases: biochemical
JAK3 = biological target: T1, JAK3 (Homo sapiens, UniProt P52333); assay: Inhibition of a panel of kinases, in vitro HotSpot kinase assay: JAK3; details: D-compounds panel data; 1 μM ATP; read-out: IC50 JAK3
T1 sequence (P52333 1-1124): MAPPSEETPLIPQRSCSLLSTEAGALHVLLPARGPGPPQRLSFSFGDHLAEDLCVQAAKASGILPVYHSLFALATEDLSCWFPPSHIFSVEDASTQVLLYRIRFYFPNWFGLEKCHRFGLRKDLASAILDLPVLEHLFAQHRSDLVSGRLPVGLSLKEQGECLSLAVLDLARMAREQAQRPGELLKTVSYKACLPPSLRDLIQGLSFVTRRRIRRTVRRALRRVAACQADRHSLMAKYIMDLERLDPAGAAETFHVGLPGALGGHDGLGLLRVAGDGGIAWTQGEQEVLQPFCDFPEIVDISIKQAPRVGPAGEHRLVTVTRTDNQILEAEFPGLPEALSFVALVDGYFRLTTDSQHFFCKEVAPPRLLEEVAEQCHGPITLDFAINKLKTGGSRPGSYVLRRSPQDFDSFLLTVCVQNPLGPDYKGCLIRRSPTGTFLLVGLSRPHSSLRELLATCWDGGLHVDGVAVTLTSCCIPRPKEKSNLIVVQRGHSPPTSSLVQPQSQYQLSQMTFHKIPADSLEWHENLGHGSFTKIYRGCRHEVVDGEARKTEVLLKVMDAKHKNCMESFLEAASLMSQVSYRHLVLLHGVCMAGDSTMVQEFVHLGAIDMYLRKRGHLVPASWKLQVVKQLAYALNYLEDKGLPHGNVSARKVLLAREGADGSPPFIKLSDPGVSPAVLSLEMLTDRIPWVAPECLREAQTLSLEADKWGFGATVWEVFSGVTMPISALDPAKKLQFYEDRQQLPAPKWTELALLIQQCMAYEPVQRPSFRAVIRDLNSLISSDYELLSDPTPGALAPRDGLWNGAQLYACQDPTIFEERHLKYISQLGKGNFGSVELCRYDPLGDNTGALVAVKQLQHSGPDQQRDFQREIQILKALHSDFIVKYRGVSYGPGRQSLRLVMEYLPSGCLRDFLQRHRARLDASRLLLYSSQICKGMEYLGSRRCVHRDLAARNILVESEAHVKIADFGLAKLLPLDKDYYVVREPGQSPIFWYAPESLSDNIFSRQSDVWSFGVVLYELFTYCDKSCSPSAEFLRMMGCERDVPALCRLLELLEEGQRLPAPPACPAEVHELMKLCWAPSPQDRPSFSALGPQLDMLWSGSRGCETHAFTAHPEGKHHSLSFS

LCK = LCK (Homo sapiens, UniProt P06239); assay: Inhibition of a panel of kinases, in vitro HotSpot kinase assay: LCK; details: D-compounds panel data; 1 μM ATP; read-out: IC50 LCK
EGFR = EGFR (Homo sapiens, UniProt P00533); assay: Inhibition of a panel of kinases, in vitro HotSpot kinase assay: EGFR; details: D-compounds panel data; 1 μM ATP
Method: (§1) The degree of inhibition of a panel of kinases is determined using the in vitro HotSpot kinase assay (purified enzymes, ^33P-ATP, an appropriate substrate and 1 μM ATP).

TEC = biological target: T2, TEC (Homo sapiens, UniProt P42680); assay: Inhibition of a panel of kinases, in vitro HotSpot kinase assay: TEC; details: D-compounds panel data; 1 μM ATP
T2 sequence (P42680 1-631): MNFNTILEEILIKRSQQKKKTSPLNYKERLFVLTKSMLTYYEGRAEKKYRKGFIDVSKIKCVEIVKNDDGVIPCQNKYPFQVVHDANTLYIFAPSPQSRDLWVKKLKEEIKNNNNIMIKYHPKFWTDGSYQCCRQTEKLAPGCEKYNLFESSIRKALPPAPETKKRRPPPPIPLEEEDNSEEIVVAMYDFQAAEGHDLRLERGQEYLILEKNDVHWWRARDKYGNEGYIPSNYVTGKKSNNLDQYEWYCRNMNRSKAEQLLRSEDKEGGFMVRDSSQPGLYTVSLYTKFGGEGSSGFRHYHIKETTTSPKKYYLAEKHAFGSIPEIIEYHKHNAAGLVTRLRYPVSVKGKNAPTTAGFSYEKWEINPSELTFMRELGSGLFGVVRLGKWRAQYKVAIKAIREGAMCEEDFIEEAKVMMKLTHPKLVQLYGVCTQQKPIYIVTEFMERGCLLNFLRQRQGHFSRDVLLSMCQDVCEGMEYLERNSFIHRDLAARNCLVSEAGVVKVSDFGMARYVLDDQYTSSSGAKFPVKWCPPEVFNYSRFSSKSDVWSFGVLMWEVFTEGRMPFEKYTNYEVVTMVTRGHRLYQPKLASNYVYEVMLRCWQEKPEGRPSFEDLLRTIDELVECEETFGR
Method: as §1

ITK = biological target: T3, ITK (Homo sapiens, UniProt Q08881); assay: Inhibition of a panel of kinases, in vitro HotSpot kinase assay: ITK; details: D-compounds panel data; 1 μM ATP
T3 sequence (Q08881 1-620): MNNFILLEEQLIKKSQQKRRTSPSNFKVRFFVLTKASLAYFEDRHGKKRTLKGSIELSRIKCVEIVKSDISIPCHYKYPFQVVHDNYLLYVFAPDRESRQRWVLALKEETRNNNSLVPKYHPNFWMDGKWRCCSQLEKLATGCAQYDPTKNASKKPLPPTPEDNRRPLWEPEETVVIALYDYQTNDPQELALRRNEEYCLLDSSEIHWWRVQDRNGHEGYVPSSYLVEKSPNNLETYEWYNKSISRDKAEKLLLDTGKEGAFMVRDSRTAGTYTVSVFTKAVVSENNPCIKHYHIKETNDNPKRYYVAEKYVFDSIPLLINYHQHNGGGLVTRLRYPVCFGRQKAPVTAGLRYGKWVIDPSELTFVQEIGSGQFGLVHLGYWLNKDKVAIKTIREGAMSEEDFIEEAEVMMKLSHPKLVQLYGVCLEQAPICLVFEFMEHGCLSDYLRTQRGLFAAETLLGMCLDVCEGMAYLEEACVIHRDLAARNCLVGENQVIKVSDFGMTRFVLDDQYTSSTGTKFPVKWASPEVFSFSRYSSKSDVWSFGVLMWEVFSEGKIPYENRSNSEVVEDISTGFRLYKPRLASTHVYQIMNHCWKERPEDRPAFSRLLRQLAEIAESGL
Method: as §1

Chain of EGFR (P00533 25-1210): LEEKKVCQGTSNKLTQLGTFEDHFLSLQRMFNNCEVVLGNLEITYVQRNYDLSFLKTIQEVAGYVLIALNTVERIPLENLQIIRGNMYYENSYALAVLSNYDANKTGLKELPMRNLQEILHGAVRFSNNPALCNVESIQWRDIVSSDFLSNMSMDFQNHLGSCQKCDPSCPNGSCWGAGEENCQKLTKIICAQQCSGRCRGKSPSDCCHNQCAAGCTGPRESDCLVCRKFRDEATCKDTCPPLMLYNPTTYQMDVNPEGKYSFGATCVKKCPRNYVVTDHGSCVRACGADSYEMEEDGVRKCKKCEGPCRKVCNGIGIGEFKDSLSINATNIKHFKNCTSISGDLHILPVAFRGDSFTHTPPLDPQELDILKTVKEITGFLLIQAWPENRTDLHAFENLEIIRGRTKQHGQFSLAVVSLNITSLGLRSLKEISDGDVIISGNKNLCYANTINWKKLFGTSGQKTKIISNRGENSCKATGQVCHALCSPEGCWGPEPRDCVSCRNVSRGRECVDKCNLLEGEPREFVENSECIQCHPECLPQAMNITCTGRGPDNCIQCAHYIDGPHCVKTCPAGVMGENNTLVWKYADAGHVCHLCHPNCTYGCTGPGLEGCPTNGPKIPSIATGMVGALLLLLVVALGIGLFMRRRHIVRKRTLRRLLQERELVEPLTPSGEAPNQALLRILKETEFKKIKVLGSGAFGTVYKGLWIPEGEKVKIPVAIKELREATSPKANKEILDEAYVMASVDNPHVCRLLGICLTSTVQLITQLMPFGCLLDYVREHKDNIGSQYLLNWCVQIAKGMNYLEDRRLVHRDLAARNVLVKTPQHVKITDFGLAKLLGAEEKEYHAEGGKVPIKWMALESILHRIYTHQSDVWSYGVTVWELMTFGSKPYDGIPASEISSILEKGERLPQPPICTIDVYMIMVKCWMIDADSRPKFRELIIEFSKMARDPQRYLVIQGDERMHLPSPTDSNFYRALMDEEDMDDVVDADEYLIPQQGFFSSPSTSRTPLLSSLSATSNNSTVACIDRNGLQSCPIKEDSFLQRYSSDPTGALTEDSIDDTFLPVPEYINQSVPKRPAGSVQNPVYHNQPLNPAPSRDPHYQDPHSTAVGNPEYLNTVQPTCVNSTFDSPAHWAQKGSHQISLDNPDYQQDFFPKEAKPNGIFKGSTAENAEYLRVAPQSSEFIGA
Chain of LCK (P06239 whole entry): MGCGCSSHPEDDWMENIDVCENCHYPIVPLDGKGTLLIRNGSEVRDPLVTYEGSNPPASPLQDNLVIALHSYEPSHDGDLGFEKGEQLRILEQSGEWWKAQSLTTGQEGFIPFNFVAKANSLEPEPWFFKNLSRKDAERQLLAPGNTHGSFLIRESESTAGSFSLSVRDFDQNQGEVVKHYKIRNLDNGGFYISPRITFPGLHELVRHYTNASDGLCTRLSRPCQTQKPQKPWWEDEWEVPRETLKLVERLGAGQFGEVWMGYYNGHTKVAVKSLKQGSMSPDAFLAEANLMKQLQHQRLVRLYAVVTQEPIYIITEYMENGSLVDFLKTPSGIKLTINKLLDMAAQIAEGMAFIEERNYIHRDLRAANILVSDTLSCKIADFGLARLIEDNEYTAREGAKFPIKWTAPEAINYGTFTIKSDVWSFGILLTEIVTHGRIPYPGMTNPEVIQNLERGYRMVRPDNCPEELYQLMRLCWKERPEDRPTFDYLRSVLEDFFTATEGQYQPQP

Cc1cc(Nc2nc(N3CCC[C@@H](NC(=O)N4Cc5ccccc5C4=O)C3)cnc2C(N)=O)sn1 [Example D-15, N-[(3R)-1-{5-carbamoyl-6-[(3-methyl-1,2-thiazol-5-yl)amino]pyrazin-2-yl}piperidin-3-yl]-1-oxo-2,3-dihydro-1H-isoindole-2-carboxamide]
IC50 (JAK3): 1000 to 10000 nM | IC50 (LCK): 10 to 100 nM | IC50 (EGFR): 100 to 1000 nM | IC50 (TEC): 10 to 100 nM | IC50 (ITK): 10 to 100 nM

Cc1cc(Nc2nc(N3CCC[C@@H](c4ncc(-c5ccccc5)[nH]4)C3)cnc2C(N)=O)sn1 [Example D-171, 3-[(3-methyl-1,2-thiazol-5-yl)amino]-5-[(3R)-3-(5-phenyl-1H-imidazol-2-yl)piperidin-1-yl]pyrazine-2-carboxamide]
IC50 (JAK3): 100 to 1000 nM | IC50 (LCK): 100 to 1000 nM | IC50 (EGFR): > 10000 nM | IC50 (TEC): 100 to 1000 nM | IC50 (ITK): > 10000 nM

Cn1cc(Nc2nc(N3CCC[C@@H](n4ccc5cc(C6CC6)ccc5c4=O)C3)cnc2C(N)=O)cn1 [Example D-184, 5-[(3R)-3-(6-cyclopropyl-1-oxo-1,2-dihydroisoquinolin-2-yl)piperidin-1-yl]-3-[(1-methyl-1H-pyrazol-4-yl)amino]pyrazine-2-carboxamide]
IC50 (JAK3): > 10000 nM | IC50 (LCK): 1000 to 10000 nM | IC50 (EGFR): > 10000 nM | IC50 (TEC): 10 to 100 nM | IC50 (ITK): > 10000 nM

C[C@@H]1[C@H](NC(=O)c2ccc3scnc3c2)CCCN1c1cnc(C(N)=O)c(Nc2ccc(N3CCN(C)CC3)cc2)n1 [Example D-226, N-[(2R,3R)-1-(5-carbamoyl-6-{[4-(4-methylpiperazin-1-yl)phenyl]amino}pyrazin-2-yl)-2-methylpiperidin-3-yl]-1,3-benzothiazole-5-carboxamide]
IC50 (JAK3): 100 to 1000 nM | IC50 (LCK): 10 to 100 nM | IC50 (EGFR): 100 to 1000 nM | IC50 (TEC): ≤ 10 nM | IC50 (ITK): 10 to 100 nM

C[C@@H]1[C@H](NC(=O)N(C)C)CCCN1c1cnc(C(N)=O)c(Nc2ccc(N3CCN(C4CCCC4)CC3)cc2)n1 [Example D-182, 3-{[4-(4-cyclopentylpiperazin-1-yl)phenyl]amino}-5-[(2R,3R)-3-[(dimethylcarbamoyl)amino]-2-methylpiperidin-1-yl]pyrazine-2-carboxamide]
IC50 (JAK3): 100 to 1000 nM | IC50 (LCK): 10 to 100 nM | IC50 (EGFR): 100 to 1000 nM | IC50 (TEC): 100 to 1000 nM | IC50 (ITK): 100 to 1000 nM

CC(C)c1ccc(C(=O)N[C@@H]2CCCN(c3cnc(C(N)=O)c(Nc4cnn(C)c4)n3)C2)cc1 [Example D-222, 3-[(1-Methyl-1H-pyrazol-4-yl)amino]-5-[(3R)-3-[4-(propan-2-yl)benzamido]piperidin-1-yl]pyrazine-2-carboxamide]
IC50 (JAK3): > 10000 nM | IC50 (LCK): 1000 to 10000 nM | IC50 (EGFR): > 10000 nM | IC50 (TEC): 10 to 100 nM | IC50 (ITK): > 10000 nM

CC(C)c1ccc(S(=O)(=O)N[C@@H]2CCCN(c3cnc(C(N)=O)c(Nc4cnn(C)c4)n3)[C@@H]2C)cc1 [Example D-220, 3-[(1-methyl-1H-pyrazol-4-yl)amino]-5-[(2R,3R)-2-methyl-3-[4-(propan-2-yl)benzenesulfonamido]piperidin-1-yl]pyrazine-2-carboxamide]
IC50 (JAK3): 1000 to 10000 nM | IC50 (LCK): > 10000 nM | IC50 (EGFR): > 10000 nM | IC50 (TEC): 1000 to 10000 nM | IC50 (ITK): > 10000 nM

C[C@@H]1[C@H](NC(=O)c2ccc3c(c2)OC(F)(F)O3)CCCN1c1cnc(C(N)=O)c(Nc2cnn(C)c2)n1 [Example D-216, 5-[(2R,3R)-3-(2,2-difluoro-2H-1,3-benzodioxole-5-amido)-2-methylpiperidin-1-yl]-3-[(1-methyl-1H-pyrazol-4-yl)amino]pyrazine-2-carboxamide]
IC50 (JAK3): 100 to 1000 nM | IC50 (LCK): 100 to 1000 nM | IC50 (EGFR): 1000 to 10000 nM | IC50 (TEC): ≤ 10 nM | IC50 (ITK): 100 to 1000 nM

C[C@H]1CC[C@@H](NC(=O)c2ccc(C(C)(C)O)cc2)CN1c1cnc(C(N)=O)c(Nc2cnn(C)c2)n1 [Example D-236, 5-[(2S,5R)-5-[4-(2-hydroxypropan-2-yl)benzamido]-2-methylpiperidin-1-yl]-3-[(1-methyl-1H-pyrazol-4-yl)amino]pyrazine-2-carboxamide]
IC50 (JAK3): 100 to 1000 nM | IC50 (LCK): 10 to 100 nM | IC50 (EGFR): 100 to 1000 nM | IC50 (TEC): ≤ 10 nM | IC50 (ITK): 100 to 1000 nM

Cn1cc(Nc2nc(N3CCC[C@@H](n4ccc5cc(C6CC6)ccc5c4=O)C3)nnc2C(N)=O)cn1 [Example D-206, 3-[(3R)-3-(6-cyclopropyl-1-oxo-1,2-dihydroisoquinolin-2-yl)piperidin-1-yl]-5-[(1-methyl-1H-pyrazol-4-yl)amino]-1,2,4-triazine-6-carboxamide]
IC50 (JAK3): 1000 to 10000 nM | IC50 (LCK): 10 to 100 nM | IC50 (EGFR): 1000 to 10000 nM | IC50 (TEC): ≤ 10 nM | IC50 (ITK): 100 to 1000 nM

C[C@@H]1[C@H](NC(=O)N(C)C)CCCN1c1cnc(C(N)=O)c(Nc2ccc(N3CCN(C)CC3)cn2)n1 [Example D-180, 5-[(2R,3R)-3-[(dimethylcarbamoyl)amino]-2-methylpiperidin-1-yl]-3-{[5-(4-methylpiperazin-1-yl)pyridin-2-yl]amino}pyrazine-2-carboxamide]
IC50 (JAK3): > 10000 nM | IC50 (LCK): > 10000 nM | IC50 (EGFR): 1000 to 10000 nM | IC50 (TEC): > 10000 nM | IC50 (ITK): > 10000 nM

C[C@@H]1[C@H](NC(=O)c2ccc(C(C)(C)C)cc2F)CCCN1c1cnc(C(N)=O)c(Nc2cnn(C)c2)n1 [Example D-223, 5-[(2R,3R)-3-(4-tert-butyl-2-fluorobenzamido)-2-methylpiperidin-1-yl]-3-[(1-methyl-1H-pyrazol-4-yl)amino]pyrazine-2-carboxamide]
IC50 (JAK3): > 10000 nM | IC50 (LCK): 100 to 1000 nM | IC50 (EGFR): 1000 to 10000 nM | IC50 (TEC): 10 to 100 nM | IC50 (ITK): 1000 to 10000 nM

Cc1ccc(C(=O)N[C@@H]2CCCN(c3cnc(C(N)=O)c(Nc4cnn(C)c4)n3)[C@@H]2C)cc1 [Example D-232, 3-[(1-methyl-1H-pyrazol-4-yl)amino]-5-[(2R,3R)-2-methyl-3-(4-methylbenzamido)piperidin-1-yl]pyrazine-2-carboxamide]
IC50 (JAK3): 1000 to 10000 nM | IC50 (LCK): 10 to 100 nM | IC50 (EGFR): 1000 to 10000 nM | IC50 (TEC): ≤ 10 nM | IC50 (ITK): 100 to 1000 nM
